By IC50 is commonly meant the concentration needed to halve the response being measured.

The values below come from patent US20090099237A1, “Methods of treating inflammatory diseases” (Roche Palo Alto LLC, priority 2007, published 2009).

Each structure is given as a SMILES string. Where two headings read alike, the source gives them in different places. A value given as a limit tells only on which side of the number the result lay.

Assay [1] deals with T1, CK1α (Homo sapiens, UniProt P48729).
T1 construct: purchased Invitrogen
The assay can be described thus: In vitro kinase assay (33P, peptide substrate). Type of assay: biochemical.

For assay [2], the target named is T2, CK1ε (Homo sapiens, UniProt P49674).
T2 construct: purchased Invitrogen
The assay can be described thus: In vitro kinase assay (33P, peptide substrate). The class given is biochemical.

Assay [3] concerns the target T3, CK1γ1 (Homo sapiens, UniProt Q9HCP0).
T3 construct: purchased Invitrogen
The assay can be described thus: In vitro kinase assay (33P, peptide substrate). The class given is biochemical.

The target in assay [4] is T4, AURKA (Homo sapiens, UniProt O14965).
T4 construct: purchased Ambit Biosciences
The assay can be described thus: KinomeScan kinase profiling. The class given is binding. Conditions: 10 μM.

Assay [5] concerns the target T5, BRAF(V600E) (Homo sapiens, UniProt P15056, V600E).
T5 construct: purchased Ambit Biosciences
The assay can be described thus: KinomeScan kinase profiling. Type of assay: binding. Conditions: 10 μM.

Assay [6] has as its target T6, CDK5 (Homo sapiens, UniProt Q00535).
T6 construct: purchased Ambit Biosciences (San Diego, Calif.)
The assay can be described thus: KinomeScan kinase profiling. The class given is binding. The following applies: 10 μM.

The target in assay [7] is T7, DAPK2 (Homo sapiens, UniProt Q9UIK4).
T7 construct: purchased Ambit Biosciences (San Diego, Calif.)
The assay can be described thus: KinomeScan kinase profiling. The class given is binding. The following applies: 10 μM.

The target in assay [8] is T8, EPHA3 (Homo sapiens, UniProt P29320).
T8 construct: purchased Ambit Biosciences (San Diego, Calif.)
The assay can be described thus: KinomeScan kinase profiling. The class given is binding. Conditions: 10 μM.

The target of assay [9] is T9, FGFR2 (Homo sapiens, UniProt P21802).
T9 construct: purchased Ambit Biosciences
The assay can be described thus: KinomeScan kinase profiling. The class given is binding. The following applies: 10 μM.

Assay [10] deals with T10, FGFR3 (Homo sapiens, UniProt P22607).
T10 construct: purchased Ambit Biosciences
The assay can be described thus: KinomeScan kinase profiling. Type of assay: binding. Conditions: 10 μM.

Assay [11] concerns the target T11, FGR (Homo sapiens, UniProt P09769).
T11 construct: purchased Ambit Biosciences
The assay can be described thus: KinomeScan kinase profiling. The following applies: 10 μM. Type of assay: binding.

The target of assay [12] is T12, FYN (Homo sapiens, UniProt P06241).
T12 construct: purchased Ambit Biosciences
The assay can be described thus: KinomeScan kinase profiling. Conditions: 10 μM. Type of assay: binding.

Assay [13] has as its target T13, JAK2(Kin.Dom2) (Homo sapiens, UniProt O60674).
T13 construct: JAK2(Kin.Dom2); purchased Ambit Biosciences
The assay can be described thus: KinomeScan kinase profiling. The class given is binding. The following applies: 10 μM.

Assay [14] has as its target T14, JNK2 (Homo sapiens, UniProt P45984).
T14 construct: purchased Ambit Biosciences
The assay can be described thus: KinomeScan kinase profiling. Type of assay: binding. Conditions: 10 μM.

Assay [15] deals with T15, KIT (Homo sapiens, UniProt P10721).
T15 construct: purchased Ambit Biosciences
The assay can be described thus: KinomeScan kinase profiling. Type of assay: binding. Conditions: 10 μM.

In assay [16] the target is T16, LCK (Homo sapiens, UniProt P06239).
T16 construct: purchased Ambit Biosciences
The assay can be described thus: KinomeScan kinase profiling. The class given is binding. Conditions: 10 μM.

For assay [17], the target named is PAK4 (Homo sapiens, UniProt O96013). The assay can be described thus: KinomeScan kinase profiling. The class given is binding. The following applies: 10 μM.
Assay [18] deals with PCTK1 (Homo sapiens, UniProt Q00536). The assay can be described thus: KinomeScan kinase profiling. Type of assay: binding. Conditions: 10 μM.
The target of assay [19] is T17, RPS6KA2 (Homo sapiens, UniProt Q15349).
T17 construct: purchased Ambit Biosciences
The assay can be described thus: KinomeScan kinase profiling. The class given is binding. Conditions: 10 μM.

For assay [20], the target named is T18, RPS6KA3 (Homo sapiens, UniProt P51812).
T18 construct: purchased Ambit Biosciences
The assay can be described thus: KinomeScan kinase profiling. Type of assay: binding. The following applies: 10 μM.

For assay [21], the target named is T19, STK3 (Homo sapiens, UniProt Q13188).
T19 construct: purchased Ambit Biosciences
The assay can be described thus: KinomeScan kinase profiling. Type of assay: binding. Conditions: 10 μM.

Assay [22] has as its target T20, STK4 (Homo sapiens, UniProt Q13043).
T20 construct: purchased Ambit Biosciences
The assay can be described thus: KinomeScan kinase profiling. Type of assay: binding. Conditions: 10 μM.

T10 sequence (P22607 23-806): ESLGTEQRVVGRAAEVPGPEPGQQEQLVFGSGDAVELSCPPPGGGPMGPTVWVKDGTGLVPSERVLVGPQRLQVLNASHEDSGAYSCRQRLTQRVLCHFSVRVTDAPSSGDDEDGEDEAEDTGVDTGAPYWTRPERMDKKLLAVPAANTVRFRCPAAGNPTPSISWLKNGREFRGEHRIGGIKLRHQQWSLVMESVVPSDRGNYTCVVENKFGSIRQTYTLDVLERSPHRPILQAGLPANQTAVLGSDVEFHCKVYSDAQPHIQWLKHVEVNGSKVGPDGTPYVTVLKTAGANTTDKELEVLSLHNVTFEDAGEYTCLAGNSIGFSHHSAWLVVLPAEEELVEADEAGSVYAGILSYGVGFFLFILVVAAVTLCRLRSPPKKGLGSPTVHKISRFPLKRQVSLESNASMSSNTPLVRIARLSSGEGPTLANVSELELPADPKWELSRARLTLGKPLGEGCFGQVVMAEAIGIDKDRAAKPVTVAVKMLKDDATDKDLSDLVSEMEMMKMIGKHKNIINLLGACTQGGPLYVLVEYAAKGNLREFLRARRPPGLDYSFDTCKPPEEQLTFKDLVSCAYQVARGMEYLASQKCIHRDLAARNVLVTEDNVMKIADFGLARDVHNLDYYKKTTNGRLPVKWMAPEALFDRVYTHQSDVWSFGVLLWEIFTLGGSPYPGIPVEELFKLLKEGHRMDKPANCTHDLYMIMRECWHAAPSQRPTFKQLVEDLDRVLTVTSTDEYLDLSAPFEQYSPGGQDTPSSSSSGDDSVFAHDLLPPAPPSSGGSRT
T11 sequence (P09769 whole entry): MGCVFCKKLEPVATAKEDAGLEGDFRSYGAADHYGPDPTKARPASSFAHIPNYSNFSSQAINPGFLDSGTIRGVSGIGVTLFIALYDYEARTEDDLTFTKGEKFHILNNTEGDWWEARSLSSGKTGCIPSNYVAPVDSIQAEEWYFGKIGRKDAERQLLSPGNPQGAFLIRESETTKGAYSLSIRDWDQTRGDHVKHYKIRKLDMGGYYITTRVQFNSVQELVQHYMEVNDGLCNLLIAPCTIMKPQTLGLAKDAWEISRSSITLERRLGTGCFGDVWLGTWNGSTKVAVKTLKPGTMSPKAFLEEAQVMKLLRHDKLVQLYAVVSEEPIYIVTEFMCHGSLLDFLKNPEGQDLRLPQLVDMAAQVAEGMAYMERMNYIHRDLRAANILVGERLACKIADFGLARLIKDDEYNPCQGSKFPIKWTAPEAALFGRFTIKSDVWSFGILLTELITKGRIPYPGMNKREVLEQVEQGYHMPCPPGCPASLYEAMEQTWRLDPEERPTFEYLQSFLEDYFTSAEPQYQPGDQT
T1 sequence (P48729 whole entry): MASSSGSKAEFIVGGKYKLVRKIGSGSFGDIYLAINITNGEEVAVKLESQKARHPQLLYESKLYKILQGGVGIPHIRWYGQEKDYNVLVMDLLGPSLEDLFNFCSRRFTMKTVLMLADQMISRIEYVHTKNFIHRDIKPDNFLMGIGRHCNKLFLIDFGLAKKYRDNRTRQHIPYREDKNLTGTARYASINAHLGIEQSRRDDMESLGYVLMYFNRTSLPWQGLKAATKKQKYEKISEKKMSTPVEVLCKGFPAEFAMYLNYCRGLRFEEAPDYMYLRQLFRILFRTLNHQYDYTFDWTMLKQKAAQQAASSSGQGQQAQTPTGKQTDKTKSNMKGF
T16 sequence (P06239 whole entry): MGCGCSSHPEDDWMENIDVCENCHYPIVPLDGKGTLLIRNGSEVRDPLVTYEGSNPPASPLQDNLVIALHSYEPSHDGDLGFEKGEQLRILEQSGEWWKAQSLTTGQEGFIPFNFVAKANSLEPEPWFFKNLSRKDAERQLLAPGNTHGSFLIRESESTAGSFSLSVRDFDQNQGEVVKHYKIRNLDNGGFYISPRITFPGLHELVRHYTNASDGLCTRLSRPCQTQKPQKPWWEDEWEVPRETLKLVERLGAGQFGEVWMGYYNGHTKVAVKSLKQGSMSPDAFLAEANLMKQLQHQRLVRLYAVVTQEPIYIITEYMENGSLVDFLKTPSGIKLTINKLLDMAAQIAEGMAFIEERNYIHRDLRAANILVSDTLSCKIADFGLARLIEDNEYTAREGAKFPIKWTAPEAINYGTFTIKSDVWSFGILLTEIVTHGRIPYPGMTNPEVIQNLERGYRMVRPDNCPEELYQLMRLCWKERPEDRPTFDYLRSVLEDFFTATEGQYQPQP
T17 sequence (Q15349 whole entry): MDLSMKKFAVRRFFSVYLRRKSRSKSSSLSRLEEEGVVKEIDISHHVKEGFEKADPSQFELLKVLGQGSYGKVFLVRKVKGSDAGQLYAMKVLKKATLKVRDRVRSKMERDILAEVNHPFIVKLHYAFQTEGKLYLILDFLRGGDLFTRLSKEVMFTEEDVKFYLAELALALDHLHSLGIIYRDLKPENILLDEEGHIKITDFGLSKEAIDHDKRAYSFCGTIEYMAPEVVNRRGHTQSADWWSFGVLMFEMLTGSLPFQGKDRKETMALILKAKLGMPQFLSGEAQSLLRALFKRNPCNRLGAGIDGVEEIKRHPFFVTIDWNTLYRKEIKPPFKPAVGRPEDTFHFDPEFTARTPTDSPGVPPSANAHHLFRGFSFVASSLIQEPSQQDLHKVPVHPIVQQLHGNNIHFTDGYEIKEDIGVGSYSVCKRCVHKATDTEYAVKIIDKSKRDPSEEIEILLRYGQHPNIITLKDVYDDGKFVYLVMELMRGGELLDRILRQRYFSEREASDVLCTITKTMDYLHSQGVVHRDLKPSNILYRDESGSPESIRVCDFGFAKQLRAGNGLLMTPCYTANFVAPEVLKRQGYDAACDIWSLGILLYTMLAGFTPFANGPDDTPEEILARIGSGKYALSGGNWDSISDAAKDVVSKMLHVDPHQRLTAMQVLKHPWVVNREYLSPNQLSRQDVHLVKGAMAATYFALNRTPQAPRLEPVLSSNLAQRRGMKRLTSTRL
T8 sequence (P29320 21-983): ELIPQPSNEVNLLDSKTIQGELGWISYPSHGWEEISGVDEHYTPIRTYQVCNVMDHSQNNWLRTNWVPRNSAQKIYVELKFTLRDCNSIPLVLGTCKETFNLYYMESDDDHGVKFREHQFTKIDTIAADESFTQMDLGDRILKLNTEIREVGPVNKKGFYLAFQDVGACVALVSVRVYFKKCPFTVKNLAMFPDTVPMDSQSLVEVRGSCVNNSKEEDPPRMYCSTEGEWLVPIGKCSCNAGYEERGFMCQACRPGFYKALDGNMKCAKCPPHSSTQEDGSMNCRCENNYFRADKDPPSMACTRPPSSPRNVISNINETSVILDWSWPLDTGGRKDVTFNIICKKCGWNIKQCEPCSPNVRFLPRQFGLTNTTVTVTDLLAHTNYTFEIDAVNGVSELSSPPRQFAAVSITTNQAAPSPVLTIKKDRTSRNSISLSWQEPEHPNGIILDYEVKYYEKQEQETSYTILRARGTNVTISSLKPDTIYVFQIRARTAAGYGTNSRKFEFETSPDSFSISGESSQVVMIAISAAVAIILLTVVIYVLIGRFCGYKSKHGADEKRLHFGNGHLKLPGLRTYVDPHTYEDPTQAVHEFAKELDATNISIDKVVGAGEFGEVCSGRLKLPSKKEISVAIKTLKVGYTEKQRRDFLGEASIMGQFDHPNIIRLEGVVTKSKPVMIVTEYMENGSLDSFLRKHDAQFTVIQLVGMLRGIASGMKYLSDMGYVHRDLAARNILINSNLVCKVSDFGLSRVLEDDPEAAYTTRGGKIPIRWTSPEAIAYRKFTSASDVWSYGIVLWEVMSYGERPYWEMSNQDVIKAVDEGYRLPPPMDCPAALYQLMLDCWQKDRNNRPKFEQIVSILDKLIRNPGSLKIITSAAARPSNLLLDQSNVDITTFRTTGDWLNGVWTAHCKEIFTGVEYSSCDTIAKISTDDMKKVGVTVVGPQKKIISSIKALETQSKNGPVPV
T19 sequence (Q13188 whole entry): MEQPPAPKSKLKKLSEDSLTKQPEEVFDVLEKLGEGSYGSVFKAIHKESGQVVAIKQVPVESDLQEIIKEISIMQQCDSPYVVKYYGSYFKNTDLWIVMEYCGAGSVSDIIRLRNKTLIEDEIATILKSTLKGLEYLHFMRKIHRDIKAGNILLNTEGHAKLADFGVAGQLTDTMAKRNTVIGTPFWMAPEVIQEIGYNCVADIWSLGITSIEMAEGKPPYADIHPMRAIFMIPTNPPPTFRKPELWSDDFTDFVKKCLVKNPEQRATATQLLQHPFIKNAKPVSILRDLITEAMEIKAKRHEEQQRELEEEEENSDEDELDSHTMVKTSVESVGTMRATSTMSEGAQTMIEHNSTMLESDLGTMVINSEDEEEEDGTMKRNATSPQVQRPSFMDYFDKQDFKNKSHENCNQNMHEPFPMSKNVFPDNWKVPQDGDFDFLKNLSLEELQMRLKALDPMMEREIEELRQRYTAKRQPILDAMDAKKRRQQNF
T2 sequence (P49674 whole entry): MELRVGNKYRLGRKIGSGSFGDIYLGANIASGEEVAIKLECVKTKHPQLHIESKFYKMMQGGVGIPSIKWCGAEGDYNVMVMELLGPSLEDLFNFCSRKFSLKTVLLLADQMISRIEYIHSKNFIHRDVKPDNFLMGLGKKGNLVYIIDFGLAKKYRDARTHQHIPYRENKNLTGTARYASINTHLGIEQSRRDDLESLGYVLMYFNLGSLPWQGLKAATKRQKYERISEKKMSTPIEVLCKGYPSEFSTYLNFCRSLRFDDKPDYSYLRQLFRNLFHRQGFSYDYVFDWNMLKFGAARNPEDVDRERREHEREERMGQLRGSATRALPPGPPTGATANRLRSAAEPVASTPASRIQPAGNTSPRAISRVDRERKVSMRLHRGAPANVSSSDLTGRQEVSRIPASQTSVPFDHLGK

In the case of `COc1cc(OC)c(C=C2C(O)=Nc3ccccc32)c(OC)c1` [IC261, 3-[(2,4,6-trimethoxyphenyl)methylidenyl]-indolin-2-one], the results for the IC50 in assay [1], in [2] and in [3] were 6.21 µM, 5.97 µM and > 100 µM, respectively. Besides, the “% Binding” value in assay [4], in assay [5], in [6], in [7], in assay [8] and in [9] was <50% in each case. Besides, the “% Binding” value in assay [10], in [11], in assay [12], in assay [13], in [14] and in assay [15] was <50% each time. In addition, the “% Binding” value in assay [16], in [17], in assay [18], in assay [19], in [20] and in assay [21] was <50% each time. For the same compound, the “% Binding” value in assay [22] was <50%.

As for `NC(=O)c1cc(-c2ccncc2)c[nH]1` [Compound A, 4-Pyridin-4-yl-1H-pyrrole-2-carboxylic acid amide], the 50% inhibitory concentration (IC50) in [1] (CK1α, 50 μM ATP, read-out: IC50) is 1.2 µM; in assay [2] (CK1ε, 50 μM ATP, read-out: IC50), 17.3 µM; in assay [3] (CK1γ1, 50 μM ATP, read-out: IC50), > 100 µM. The “% Binding” value in assay [4], in [5], in [6], in [7], in [8] and in [9] was <50% each time. Besides, the “% Binding” value in [10], in assay [11], in [12], in assay [13], in assay [14] and in assay [15] was <50% throughout. Besides, the “% Binding” value in assay [16], in [17], in assay [18], in assay [19], in assay [20] and in [21] was <50% each time. The “% Binding” value in assay [22] is recorded as <50%.
